In brackets after ≈: the same amount, converted by molar mass.
Legend:
Leishmania donovani [1] = conditions: cited from earlier work
[2] = tested on: Leishmania donovani promastigotes; assay: Externalization of phosphatidylserine, Annexin V-FITC / PI flow cytometry; type: cell-based; conditions: 2x IC50, 24 hrs; for effect on externalization of phosphatidylserine (apoptotic potential): p-value = 0.9926
Description: A double staining of treated/ untreated promastigotes of Leishmania donovani (2 x 10^5 cells/ml) with Annexin V-FITC and Propidium Iodide (PI) was done to determine the apoptotic and necrotic effects of the some of the established cytocidal compounds amongst the eighteen MMV compounds studied. Treatment was set at 2x IC50 concentrations of the respective test compounds against a negative control of untreated promastigote cells in a 24 hrs incubation period. The cells were then prepared using the Annexin V-FITC apoptosis detection kit following the Sigma protocol (Catalog Number: APOAF). Further treatment and analysis of cells was done as shown previously.

[3] = tested on: Leishmania donovani promastigotes; assay: Morphological and mitochondrion effects by fluorescence microscopy (DAPI, MitoTracker); type: cell-based
Description: Their mitochondrial integrity were analyzed using a slightly modified DAPI and Mitotracker dye protocol as described by Amisigo and colleagues.

[4] = tested on: Leishmania donovani promastigotes; assay: Cell cycle analysis by flow cytometry; type: cell-based; conditions: 2x IC50, 24 hrs, versus untreated
Description: The analysis was done using the protocol as designed in the Guava cell cycle reagent manual (catalog No. 4500–0220). […] Both treated and untreated Leishmania cells were incubated for 24 hrs, samples read using a flow cytometer (BD LSR Fortessa X-20 analyzer BD Biosciences), and the respective cell counts analyzed in the G0/G1, S and G2/M Phases. Data generated was further analyzed using the FlowJo V10 software.

[5] = tested on: Leishmania donovani amastigotes in RAW macrophage cells; assay: Antileishmanial activity against macrophage-amastigotes (MTT assay); type: cell-based; conditions: for IC50: Leishmania donovani, Macrophage, amastigotes in RAW macrophages, MTT, read-out: IC50 (μg/ml) ±SD amastigote; for Therapeutic Index (TC50/IC50) amastigotes: TC50 RAW / IC50 amastigote
Description: The RAW macrophage cells were infected with promastigotes at a density of 1:10 ratio, respectively for 12 hrs and the non-phagocytosed promastigotes and media removed by aspiration. The RAW macrophages cells containing the internalized amastigote cells were treated with the compounds to test for their growth inhibitory potentials as previously described. The 3-(4,5-Dimethylthiazol-2-yl)-2,5-diphenyltetrazolium bromide (MTT) assay was also used to determine the parasite viability. […] was measured with a Varioskan Lux Elisa plate reader at a wavelength of 570 nm.

O+ human red blood cells = assay: Haemolytic potential; conditions: 2% haematocrit, up to 100 μg/ml
Description: The compounds were tested against the O^+ human red blood cells (obtained from the Malaria laboratory of WACCBIP) at a density of 2% haematocrit for their ability to lyse erythrocytes upon incubation. Here, a concentration of up to 100 μg/ml of compounds was used, and the 50% haemolytic concentration (HC50) of the compounds were determined by analysis of dose-response curves as described.

[6] = tested on: RAW 264.7 murine macrophage cell line; assay: Cytotoxicity against mammalian RAW macrophage cell line (MTT assay); conditions: 48 hrs, 50% cytotoxic concentration
Text: Here, amphotericin B was used as a positive control and the negative control was untreated RAW cell line.

[7] = tested on: Leishmania donovani promastigotes; assay: Growth kinetics and cytocidal/cytostatic (growth reversibility) assay; type: cell-based; conditions: 1 μg/ml, 120 hrs treatment, then 96 hrs in fresh media
Description: The compounds (at 1 μg/ml) were tested for their effects on the growth kinetic pattern against the promastigotes of L. donovani. The parasite cells (2 x 10^5 cells/ml) were incubated at 25° C in the presence of the test compounds in M199 supplemented with 10% FBS. Amphotericin B treated parasites (0–50 μg/ml) were used as the positive control while the untreated promastigotes in medium alone served as the negative control. Viable cells were counted every 24 hrs for a total of 120 hrs as indicated in previous studies.
The cytocidal/cytostatic effect of the test compounds were assessed by analyzing the treated and untreated parasites after 120 hrs of incubation. Cells were washed twice with fresh M199, resuspended in complete M199 media and incubated further for 96 hrs. The viable cells were then counted microscopically.

[8] = tested on: Leishmania donovani promastigotes; assay: Antileishmanial activity against promastigotes (MTT assay); type: cell-based; conditions: for IC50: Leishmania donovani, 96 hrs at 25° C, MTT, mean of three experiments, read-out: IC50 (μg/ml) ±SD promastigote; for Therapeutic Index (TC50/IC50) promastigotes: TC50 RAW / IC50 promastigote
Text: Amphotericin B was used as a positive control. The 3-(4,5-Dimethylthiazol-2-yl)-2,5-diphenyltetrazolium bromide (MTT) assay was used to determine the parasite viability as previously described.

[9] = tested on: Leishmania donovani promastigotes; assay: ROS generation in treated promastigotes (H2DCFDA); type: cell-based; conditions: 100, 50 or 25 μM, 72 hrs
Description: The degree of reactive oxygen species (ROS) production in treated promastigote and amastigote cells of L. donovani were assessed using the H2DCFDA (2’,7’-dichlorodihydrofluorescein diacetate) rich fluorescent dye (MAK145 Sigma-Aldrich) ROS detection kit. […] Amoxicillin was used as a positive control for pro-oxidative generation while Vitamin C was used as a positive control for anti-oxidative potential. The treated and untreated cells were then suspended in PBS, washed, and resuspended in PBS, then incubated with the ROS detection master mix for 1 hr as instructed by the protocol. The cells were analyzed for intracellular ROS generation by measuring the fluorescence intensity which is proportional to the ROS production level using the Varioskan Lux Elisa microplate reader (Thermo Fischer Scientific, USA) at a wavelength of 605 nm.

Leishmania donovani [10] = tested on: Leishmania donovani; parameters: method as in PMID 33268145; conditions: dosed at 50 mg/kg, mouse model of visceral leishmaniasis; cited from earlier work

## C1CCCC1.CN(CCn1cc(C2CCCC2)nn1)c1ccnc2cc(Cl)ccc12.I.[Fe] [CQFC1]
Leishmania donovani [1]
  efficacy among water-soluble ferrocenylquinoline derivatives: most efficacious of the molecules

## CC1COC(Cn2cncn2)(c2ccc(Oc3ccc(Cl)cc3)cc2Cl)O1 (stereo not shown) [Compound C06A, Difenoconazole, reference compound]
[2]
  more necrotic cells compared to negative control: ~17%
  effect on externalization of phosphatidylserine (apoptotic potential): none of the compounds showed any significant effects
[3]; 2x IC50, 24 hrs
  cells with lost kinetoplast DNA and enlarged nuclear DNA: 60%
[3]; 2x IC50, 72 hrs
  morphological / mitochondrial changes after 72 hrs: parasite clearance in most fields
[4]
  increase in parasites at the S phase: 1.5 fold
[5]
  IC50: 4.6 ± 0.004 µg/mL (≈ 11.3 µM)
  Therapeutic Index (TC50/IC50) amastigotes: 21.74
O+ human red blood cells
  HC50: >100 µg/mL
[6]
  TC50 (μg/ml) ±SD RAW: >100 µg/mL
[7]
  cytocidal/cytostatic effect upon drug withdrawal: cytocidal effect
[8]
  IC50: 0.21 ± 0.008 µg/mL (≈ 0.517 µM)
  Therapeutic Index (TC50/IC50) promastigotes: 476.19

## Cc1noc(C)c1COc1cccc(C(=O)N=c2[nH]cccc2C)c1 [Compound D05A]
[2]
  more necrotic cells compared to negative control: about 6.5%
  effect on externalization of phosphatidylserine (apoptotic potential): none of the compounds showed any significant effects
[3]; 2x IC50, 24 hrs
  morphological / mitochondrial changes after 24 hrs: did not show any obvious abnormalities
[3]; 2x IC50, 72 hrs
  morphological / mitochondrial changes after 72 hrs: most of the fields had total parasite clearance
  nuclear/ kinetoplast DNA degenerated: 90%
[4]
  increase in parasites at the S phase: 1.5 fold
[5]
  IC50: 3.8 ± 0.03 µg/mL (≈ 11.3 µM)
  Therapeutic Index (TC50/IC50) amastigotes: 26.32
O+ human red blood cells
  HC50: >100 µg/mL
[6]
  TC50 (μg/ml) ±SD RAW: >100 µg/mL
[7]
  cytocidal/cytostatic effect upon drug withdrawal: cytocidal effect
[8]
  IC50: 0.2 ± 0.02 µg/mL (≈ 0.593 µM)
  Therapeutic Index (TC50/IC50) promastigotes: 500
[9]
  ROS generation effect in promastigotes: anti-oxidative effect

## O=[N+]([O-])c1cn2c(n1)O[C@@H](COc1ccc(-c3ccc(F)cc3)nc1)CC2 [DNDI-0690]
Leishmania donovani [10]
  parasite burden reduction: 96%

Reference: paper PMC8608343 (PLoS ONE, 2021)
